Patent publication US9278930B2, “Methods for increasing the stabilization of hypoxia inducible factor-α” (Aerpio Therapeutics Inc., priority 2009, dated 2016)
Read-outs that look alike come from different tables or passages of the source. Blank lines part the entries; values can stand above or below the compound they belong to.

What was measured:
[1] = Solubility of salts in water (HPLC); assay type: physicochemical
Method: The formulator can determine the solubility of the pharmaceutically acceptable salts of the disclosed inhibitors by any method desirable. The following is a non-limiting example of a procedure for evaluating the solubility of a salt of a disclosed inhibitor. A suspension of tert-butyl-{[1-(4-chlorobenzyl)-3-hydroxy-2-oxo-1,2-dihydropyridin-4-yl]methyl}-piperazine-1-carboxylate methanesulfonate (26.6 mg) in distilled deionized water (3.0 mL) is sonicated for 20 min with water bath temperature under 25° C. The suspension is filtered to remove any insoluble salt. The clear filtrate solution (200 μL) is diluted with distilled deionized water (800 μL) and subjected to HPLC analysis. The following are results for the pharmaceutically acceptable salts outlined in Table VII above.

[2] = system: phosphoglycerate kinase (PGK) expression; assay: PGK expression in murine embryonic fibroblasts; assay type: cell-based; conditions: wild type murine embryonic fibroblasts; 1 μM, 10 μM (FIG. 12)
Method: FIG. 11 depicts the up regulation of phosphoglycerate kinase (PGK) expression in wild type murine embryonic fibroblasts as a result of treatment with compound a compound disclosed in Table VIII at dosages of 1 μM (E), 10 μM (F), and 50 μM (G) vs. wild type control (H) and the lack of up regulation of PGK expression in HIF-1 knock out cells as a result of treatment with a compound disclosed in Table VIII at dosages of 1 μM (A), 10 μM (B), and 50 μM (C) and HIF-1 knock out control (D). Both cell types were treated for 7 hours.

Structure (SMILES): CC(C)(C)OC(=O)N1CCN(Cc2ccn(Cc3ccc(Cl)cc3)c(=O)c2O)CC1 [hydrogensulfonate, tert-butyl-{[1-(4-chlorobenzyl)-3-hydroxy-2-oxo-1,2-dihydropyridin-4-yl]methyl}-piperazine-1-carboxylate]
Solubility [1]: 13200 µg/mL

up regulation of phosphoglycerate kinase (PGK) expression [2]: up regulation
Structure (SMILES): O=c1c(O)cccn1Cc1cccc(Cl)c1 [Compound F2, 1-(3-chlorobenzyl)-3-hydroxypyridin-2(1H)-one]

Structure (SMILES): CC(C)(C)OC(=O)N1CCN(Cc2ccn(Cc3ccc(Cl)cc3)c(=O)c2O)CC1 [Compound A41, tert-butyl 4-{[1-(4-chlorobenzyl)-3-hydroxy-2-oxo-1,2-dihydropyridin-4-yl]methyl}piperazine-1-carboxylate]
Solubility ([1]; distilled deionized water, sonicated 20 min, under 25° C., HPLC, listed as Free base): ~1 µg/mL
